How the values were obtained:
InflammaSkin® models = assay: Hematoxylin & Eosin (H&E) staining of InflammaSkin models (skin structure, integrity, viability); assay type: cell-based, human; conditions: Example 1; Day 7; Day 1-6: 1 μM Otezla or SCFA (45 μg/mL Ca-propionate + 1 mM Ca-/Mg-butyrate) systemic, 0.05% Betamethasone topical; vs untreated InflammaSkin
Protocol: A total of 16 biopsies of 15 mm diameter were produced from a single donor. Two NativeSkin® models with 12/15 mm silicon rings were produced from the biopsies according to standard procedures in place, and cultured under cell culture conditions (37° C., 5% CO2, max. humidity) for 7 days with 2 mL of standard NativeSkin® medium renewed every day. Fourteen PSO-InflammaSkin® models with 12/15 mm silicon rings were produced by inducing in situ activation and Th17/Th1 polarization of skin resident T cells with a proprietary cocktail, and cultured under cell culture conditions (37° C., 5% CO2, max. humidity) for 7 days with 2 mL of PSO-InflammaSkin® culture medium renewed every day.
From Day 1 to Day 6, models were systemically treated with 1 μM Otezla or Short Chain Fatty Acids (SCFAs), or topically treated with positive control 0.05% Betamethasone
In these experiments, the SCFAs administered were 45 μg/mL of Ca-propionate and 1 mM mixture of salts (Ca-butyrate and Mg-butyrate). […]
Skin structure and integrity and viability were evaluated using Hematoxylin & Eosin (H&E) staining following treatment with Betamethasone, […] Otezla® (Apremilast), or SCFAs comprising butyric acid and propionic acid. […] Therefore, the donor sample was determined to remain viable over the course of the culture in the absence of inflammation/T-cell activation.

MIP-3α = assay: Multiplex (MSD V-PLEX) cytokine release, InflammaSkin: MIP-3α; assay type: cell-based, human; conditions: Example 2; 1 μM Otezla systemic; compared to untreated InflammaSkin
Protocol: (§1) A total of 16 biopsies of 15 mm diameter were produced from a single donor. Two NativeSkin® models with 12/15 mm silicon rings were produced from the biopsies according to standard procedures in place, and cultured under cell culture conditions (37° C., 5% CO2, max. humidity) for 7 days with 2 mL of standard NativeSkin® medium renewed every day. Fourteen PSO-InflammaSkin® models with 12/15 mm silicon rings were produced by inducing in situ activation and Th17/Th1 polarization of skin resident T cells with a proprietary cocktail, and cultured under cell culture conditions (37° C., 5% CO2, max. humidity) for 7 days with 2 mL of PSO-InflammaSkin® culture medium renewed every day. […]
(§2) Human pro-inflammatory cytokines released in the supernatant were quantified using the V-PLEX Human IL-17A Kit (MesoScale Discovery, reference: K151RFD-1) and V-PLEX Human custom Pro-inflammatory. […]
(§3) Samples were diluted four times for plate 2 and two times for plate 1. Samples and standards were assessed in duplicate. Plates were read on MesoScale Discovery Quickpleax SQ 120 plate reader and values expressed in pg/mL.
(§4) A statistical analysis was performed. […] First, the distribution's normality of the two compared group was assessed. […] If the two distributions were normal, the homogeneity of variances was assessed using a Fisher test on the variances. […]

IFN-γ = assay: Multiplex (MSD V-PLEX) cytokine release, InflammaSkin: IFN-γ; assay type: cell-based, human; conditions: Example 2; Day 7 supernatant; 1 μM Otezla or SCFA (45 μg/mL Ca-propionate + 1 mM Ca-/Mg-butyrate) systemic, 0.05% Betamethasone topical; vs untreated InflammaSkin
Protocol: as §1, §2, §3, §4

[1] = system: imiquimod (IMQ)-induced psoriasis model mice; assay: Disease severity score, imiquimod (IMQ)-induced psoriasis model in mice; assay type: in vivo, mouse; conditions: for disease severity score (psoriasis severity score): Example 12
Protocol: Topical application of IMQ, a TLR7/8 ligand and potent immune activator induced and exacerbated psoriasis in mice. The mouse IMQ-induced psoriasis (IMQ Ps) model was initiated by a repeated topical application of Aldara© cream (containing 5% IMQ) over 6 consecutive days. Female Balb/c mice (9 weeks of age at reception, ordered with 20 g, Charles River, Sulzfeld, Germany; n=10 mice/group, exception healthy controls n=4) received daily a topical application of 62.5 mg of commercially available IMQ cream (5% Aldara©) on the beforehand (day −1) shaved (~2 cm×3 cm), depilated (Pilka© cream) back skin, and 7 mg on the outer right ear skin for 6 consecutive days, translating in a daily dose of approximately 3.5 mg IMQ. Healthy control mice were included in the study and were treated with vehicle cream (Vaseline; Bombastus-Werke AG) only instead of IMQ. Additionally, an IMQ disease control group was also included.
Before starting treatment on the day of disease induction (day 0), mice were randomized based on body weight to the respective group. To evaluate the anti-inflammatory efficacy of the two test compounds in mouse IMQ psoriasis, mice were treated twice daily ([…] in sterile water; m/m/v) or with fixed dose of SCFA (in ddH2O) starting on day 0.
Disease Severity Score was evaluated on a daily base starting with the induction of psoriasis by IMQ application (day 0) until the end (day 6) of the study. The psoriasis severity on the back skin of the mice was evaluated by using a modified scoring system developed by van der Fits et al., based on the clinical PASI (psoriasis area and severity index) and takes skin erythema, scaling and skin thickening into account. Scoring was performed by the same lab technician throughout the experiment. Each parameter was scored independently on a scale from 0 to 3.
The added-up score (erythema plus scaling plus thickening), named disease severity score (scale 0-9), served then as marker for the severity of back skin inflammation. In addition, ear thickness of the right ear was determined daily by using an automatized caliper (Bayer AG, Germany).
The statistical analysis of the data was conducted by using the GraphPad PRISM software. Here, a one-way analysis of variance (ANOVA) and a pair-wise comparison to the IMQ disease control group (using the Dunnett's test) as a multiple comparison procedure was performed. Statistical significance was delineated by p value (*, p<0.05; **, p<0.01; ***, p<0.005; **** p<0.001).

## CCOc1cc([C@@H](CS(C)(=O)=O)N2C(=O)c3cccc(NC(C)=O)c3C2=O)ccc1OC [Otezla, Apremilast]
InflammaSkin® models
  H&E: incidence of pyknosis, vacuolization and epidermal/dermal separation: reduce the incidence of pyknosis, vacuolization and epidermal/dermal separation
MIP-3α
  increase of secretion of MIP-3a: about 50%
IFN-γ
  IFN-γ secretion: significantly reduced
[1]; Example 4, oral gavage BID from day 0 to day 6, Apremilast 25 mg/kg BID (50 mg/kg/day), SCFA fixed dose (120 mg/kg/day Ca-propionate + 2,146 mg/kg/day Ca-/Mg-butyrate), vs IMQ control
  disease severity score (psoriasis severity), back skin: significantly inhibited the psoriasis severity in IMQ-treated mice throughout the duration of the experiment
[1]; Example 5, Apremilast 10 mg/kg/day and 14 mg/kg/day (5 and 7 mg/kg BID), oral
  disease severity score (psoriasis severity): inhibited the psoriasis severity in IMQ-treated mice within the first four days of the study, but anti-inflammatory effects were not maintained until the end of the study at day 6
[1]; Apremilast 12 mg/kg BID oral, monotherapy
  disease severity score (psoriasis severity score): did not reach significance at day 4 and day 5
[1]; Apremilast 25 mg/kg BID oral alone, or combined with fixed dose SCFA (60 mg/kg/day Ca-propionate + 1,100 mg/kg/day Ca-/Mg-butyrate)
  disease severity score (psoriasis severity score): reduced the psoriasis severity score in IMQ-treated mice at day 4 of the study (p<0.05), and these effects were maintained at the end of the study at day 6
